Literature values in patent publication US9532983B2, “Benzofuran compounds, compositions, kits and/or methods thereof” (Savannah State University, priority 2013, dated 2017).

Biological target: σ1 receptor (Homo sapiens, UniProt Q99720)
Settings: read-out: affinity for the σ1 receptor; Maurice et al.; cited from earlier work

Sequence of σ1 receptor (Q99720 whole entry, species assumed): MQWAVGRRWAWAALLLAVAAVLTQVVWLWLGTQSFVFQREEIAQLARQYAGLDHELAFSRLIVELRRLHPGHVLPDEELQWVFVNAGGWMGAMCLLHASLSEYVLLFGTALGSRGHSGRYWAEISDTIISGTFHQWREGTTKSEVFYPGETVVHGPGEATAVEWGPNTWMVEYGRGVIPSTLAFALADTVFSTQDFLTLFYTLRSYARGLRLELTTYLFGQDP

For `Cc1ccc2c(c1)[C@]13CCCC[C@@H]1[C@H](C2)N(C)CC3` [dimemorfan], the Ki is listed as 151 nM.
